# According to patent US8268836B2, “Compound useful as a c-Met inhibitor” (Eli Lilly and Company, priority 2010, dated 2012):
# Legend:
# [1] = target: T1, Met (pY1349) in NCl-H460 cells (Homo sapiens, UniProt P08581); assay: HGF stimulated Met (pY1349) NCI-H460 cell-based ELISA; details: HGF 100 ng/mL stimulated NCI-H460 cells; read-out: relative IC50, H460 assay (c-Met phosphorylation)
# T1 construct: host or cells: NCI-H460
# Protocol: NCl—H460 cells (purchased from ATCC) are cultured in RPMI 1640 media (Invitrogen) supplemented with 10% Fetal Bovine Serum (FBS) and plated (prior to becoming 70% confluent) in 96-well flat-bottom plates at a density of 20,000 cells per well in 80 μL volume. The cells are then incubated overnight in a cell culture incubator (5% CO2, 95% Relative Humidity (RH) and 37° C.) and allowed to attach to the plate. The following morning the cells are washed with 2 volumes of a Reduced Serum Media (RSM, RPMI 1640 media supplemented with 0.5% FBS). After removal of the last wash, 80 μL of RSM is added to each well of the cell plates. The cell plates are incubated for 2.5 h in a cell culture incubator, and then dosed with compounds. Compound inhibitors are first solubilized at 10 mM in 100% DMSO and then diluted to 100 μM with 2% DMSO RSM. […] After 1 h capture (at RT) the MSD® plate wells are washed with 1× Tris Wash Buffer, and then 150 μL of 1× Read Buffer T (with surfactant, MSD®) is added. Immediately after the addition of the Read Buffer, the plates are analyzed with a SECTOR 6000 MSD® Imager plate reader. Relative IC50 values are determined using MSD activity units by calculating percent inhibition with respect to on-plate “MIN” and “MAX” controls and then fitting the percent inhibition values and ten-point dose response data to a four-parameter logistic equation.
# [2] = tested on: U87MG glioblastoma xenografts; assay: Xenograft tumor model U87MG; format: in vivo, mice
# Protocol: (§1) Human glioblastoma cells U87MG, human gastric cancer cells MKN45, or human pancreatic KP4 cells are cultured and implanted subcutaneously in the rear flank of female CD-1 nu/nu strain mice which have been acclimated for one week in the animal facility after receipt from the vendor. Mice are randomized into groups of 10 mice per group. Testing compound is prepared in an appropriate vehicle and is administered by oral gavage when tumors are established (7-21 days after implant, or when the mean tumor volume reaches ˜100 mm^3). Tumor response is determined by tumor volume measurement performed twice a week during the course of treatment. Fluctuations in body weight are also monitored as a general measurement of toxicity. The compound of example 1 is orally administered twice a day for 28 days.
# (§2) For statistical analysis, the individual subject tumor volumes are transformed to log volume and are analyzed with a two-way repeated measures analysis of variance by time and treatment using the MIXED procedures in SAS software (version 8.2). The correlation model for the repeated measures is spatial power. Treated groups are compared to the control group at the final time point. The MIXED procedure is also used separately for each treatment group to calculate adjusted means and standard errors at each time point. Both analyses account for the autocorrelation within each subject.
# MKN45 gastric xenografts = assay: Xenograft tumor model MKN45; format: in vivo, mice
# Protocol: as §1, §2
# [3] = 4 mg/kg oral twice a day for 28 days
# [4] = 8 mg/kg oral twice a day for 28 days
# [5] = 16 mg/kg oral twice a day for 28 days
# [6] = 32 mg/kg oral twice a day for 28 days
# T1 sequence (P08581 25-1390): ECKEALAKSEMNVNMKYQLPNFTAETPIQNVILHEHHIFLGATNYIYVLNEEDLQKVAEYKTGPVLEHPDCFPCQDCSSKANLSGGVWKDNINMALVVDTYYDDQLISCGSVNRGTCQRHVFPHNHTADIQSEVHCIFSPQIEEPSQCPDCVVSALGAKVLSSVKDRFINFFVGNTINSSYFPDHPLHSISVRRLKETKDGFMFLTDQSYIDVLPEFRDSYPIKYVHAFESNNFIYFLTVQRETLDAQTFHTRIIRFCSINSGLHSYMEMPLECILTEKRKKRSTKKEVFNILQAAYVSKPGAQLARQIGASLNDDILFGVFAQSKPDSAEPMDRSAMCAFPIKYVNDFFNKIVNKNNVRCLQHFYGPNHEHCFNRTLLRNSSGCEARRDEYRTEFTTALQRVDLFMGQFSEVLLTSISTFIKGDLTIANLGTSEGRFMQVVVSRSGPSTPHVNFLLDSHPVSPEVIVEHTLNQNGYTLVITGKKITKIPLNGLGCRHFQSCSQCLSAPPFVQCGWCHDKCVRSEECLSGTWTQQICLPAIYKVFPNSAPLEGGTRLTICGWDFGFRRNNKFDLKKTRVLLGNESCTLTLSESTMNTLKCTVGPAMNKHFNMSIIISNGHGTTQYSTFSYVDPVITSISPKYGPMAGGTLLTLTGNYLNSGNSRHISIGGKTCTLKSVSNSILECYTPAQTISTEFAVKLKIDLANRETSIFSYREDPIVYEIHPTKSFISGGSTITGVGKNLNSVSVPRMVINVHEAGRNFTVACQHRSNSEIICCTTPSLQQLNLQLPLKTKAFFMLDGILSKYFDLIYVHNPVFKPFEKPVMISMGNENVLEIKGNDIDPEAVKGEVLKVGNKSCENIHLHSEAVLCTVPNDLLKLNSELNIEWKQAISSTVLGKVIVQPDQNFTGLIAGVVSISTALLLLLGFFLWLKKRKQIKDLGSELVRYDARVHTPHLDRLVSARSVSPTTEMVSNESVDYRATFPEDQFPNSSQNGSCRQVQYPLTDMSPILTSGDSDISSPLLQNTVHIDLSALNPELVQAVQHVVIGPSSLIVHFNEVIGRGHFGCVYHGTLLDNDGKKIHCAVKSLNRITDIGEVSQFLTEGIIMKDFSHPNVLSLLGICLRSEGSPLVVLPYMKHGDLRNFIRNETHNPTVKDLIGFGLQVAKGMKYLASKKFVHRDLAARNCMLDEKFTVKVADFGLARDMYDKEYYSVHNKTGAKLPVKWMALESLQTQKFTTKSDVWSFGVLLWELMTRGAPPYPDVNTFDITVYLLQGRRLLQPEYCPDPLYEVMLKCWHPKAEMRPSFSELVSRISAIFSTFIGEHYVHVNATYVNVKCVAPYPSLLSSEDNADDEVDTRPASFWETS
smiles,measurement,setting,value
"Cn1cc(-c2ccc3nnc(Sc4ccc5nn(C)cc5c4)n3n2)cn1 [Example 1, 6-(1-Methyl-1H-pyrazol-4-yl)-3-(2-methyl-2H-indazol-5-ylthio)-[1,2,4]triazolo[4,3-b]pyridazine]",IC50,[1],36 nM
same,Mean Tumor Volume ± Standard Error,[2]; 2 mg/kg oral twice a day for 28 days,271 ± 61 mm^3
same,Mean Tumor Volume ± Standard Error,[2]; [3],137 ± 29 mm^3
same,Mean Tumor Volume ± Standard Error,[2]; [4],108 ± 16 mm^3
same,Mean Tumor Volume ± Standard Error,[2]; [5],116 ± 19 mm^3
same,Mean Tumor Volume ± Standard Error,[2]; [6],46 ± 4 mm^3
same,Mean Tumor Volume ± Standard Error,MKN45 gastric xenografts; [3],329 ± 54 mm^3
same,Mean Tumor Volume ± Standard Error,MKN45 gastric xenografts; [4],296 ± 29 mm^3
same,Mean Tumor Volume ± Standard Error,MKN45 gastric xenografts; [5],166 ± 10 mm^3
same,Mean Tumor Volume ± Standard Error,MKN45 gastric xenografts; [6],161 ± 14 mm^3
